The text below walks through data of patent US8088801B2, “Aryloazol-2-yl cyanoethylamino compounds, method of making and method of using thereof” (Merial Limited, priority 2007, dated 2012).

One may read the inhibition as the share of the control response that was lost under treatment.

The subject of experiment [1] is Haemonchus contortus. Kind of experiment: Method B: Haemonchus contortus in vivo in Mongolian gerbil, oral gavage. The conditions noted are these: 72 h, Mongolian gerbils, read-out: reduction in nematode infestation. Also on record: species or system Mongolian gerbil (Meriones unguiculatus). Here is the method: Method B: Screening Method to Test Activity of Compounds Against Haemonchus contortus In Vivo in Mongolian Gerbil (Meriones unguiculatus).
Mongolian gerbils, at least five weeks old, were immunosuppressed and artificially infected with ca. 1000 ensheathed Haemonchus contortus third instar larvae. Six days after infection, the Mongolian gerbils were treated by oral gavage with the test compounds, dissolved in a mixture of 2 parts DMSO and 1 part polyethylene glycol (PEG400), at doses of 100 mg/kg and dissolved in pure polyethylene glycol (PEG400) at doses of 10 and 1 mg/kg. Jirds treated only with the placebo (2 parts DMSO and 1 part PEG400 or pure PEG400) served as controls. On day 9 (3 days after treatment) the jirds were euthanized and necropsied for recovery of parasites from the stomach. Efficacy was calculated as the average % reduction in the number of worms in each test group compared with the average number of worms from the control group. […] Compound numbers 1.001, 1.008, 1.012, 1.013 and 1.014 provided at least 95% reduction in nematode infestation in Mongolian gerbils treated by oral gavage with test article at a dose of 100 mg/kg. Compound numbers 1.012, 1.033, 1.064, 2.008, 2.037, 2.038, 2.040, 2.041, 3.001 provided at least 95% reduction in nematode infestation at a dose of 10 mg/kg. Compound numbers 1.094, 2.048, 3.001, 3.007 and 3.009, provided at least 95% reduction in nematode infestation at a dose of 1 mg/kg. Compound numbers 3.005, 3.006, 3.011, 3.012, 3.017 and 3.019, provided at least 95% reduction in nematode infestation at a dose of 0.5 mg/kg.

Experiment [2] deals with Trichostrongylus colubriformis. The experiment in a line: Method D: screening against Trichostrongylus colubriformis, L1 larvae in microtitre plate. The following applies: 96 h, test concentration 0.0025 ppm, 4 days assessment, read-out: motility inhibition. As for the experimental part: Method D: Screening Method to Test Activity of Compounds Against Trichostrongylus colubriformis.
Twenty L1 Trichostrongylus colubriformis larvae were added to wells of a microtitre plate containing a nutrient medium and the test compound in DMSO. The microtitre plate was then held at 27° C. where the L1 larvae were allowed to develop. An analysis was conducted at 4 days to determine successful development to the L3 stage. Larvae exposed to DMSO and no test compound served as controls. Compounds numbers 1.008, 1.014, 1.042, 1.047, 1.048, 1.073, 2.001, 2.003 and 2.020, gave at least 90% motility inhibition at a test concentration of 0.15 ppm at the 4 days assessment. Compounds numbers 1.001, 1.003, 1.007, 1.011, 1.037, 1.038, 1.043, 1.056, 1.066, 1.070, 1.071, 2.012 and 2.016, gave at least 90% motility inhibition at a test concentration of 0.04 ppm at the 4 days assessment. Compounds numbers 1.012, 1.020, 1.021, 1.033, 1.034, 1.039, 1.064, 1.065, 2.008, 2.009 and 3.005 gave at least 90% motility inhibition at a test concentration of 0.01 ppm at the 4 days assessment. Compounds numbers 1.094, 2.040, 2.048, 2.049, 3.006, 3.009, 3.011 and 3.012 gave at least 90% motility inhibition at a test concentration of 0.0025 ppm at the 4 days assessment.

In experiment [3] the test system is Haemonchus contortus. The experiment in a line: Method A: screening against Haemonchus contortus, L1 larvae in microtitre plate. The conditions noted are these: 96 h, test concentration 0.0025 ppm, 4 days assessment, read-out: motility inhibition. The source says: Method A: Screening Method to Test Activity of Compounds Against Haemonchus contortus.
For experiment [4], the system named is Microfilaria of Dirofilaria immitis. Kind of experiment: Method F: microfilaria of Dirofilaria immitis in microtitre plate. The conditions noted are these: test concentration 50 ppm, assessment at 24 hours, read-out: motility inhibition. Here is the method: Method F: Screening Method to Test Activity of Compounds Against Microfilaria of Dirofilaria immitis.
Four hundred to six hundred microfilaria of Dirofilaria immitis were added to wells of a microtitre plate containing buffer and the test compound in DMSO. The microtitre plate was then held at 37° C. in an environment containing 5% CO2. An assessment was conducted at 24 hours to determine survival of the microfilaria. Microfilaria exposed to DMSO and no test compound served as controls. Compounds numbers 1.003, 1.012, 1.013, 1.064, 1.086, 1.087, 1.090, 1.094, 2.043, 2.046, 2.047, 2.048, 2.049, 3.005, 3.006, 3.009, 3.011, 3.012, 3.017, 3.019 and 3.023 gave at least 90% motility inhibition at a test concentration of 50 ppm.

As to `Cc1c(Br)cnc2cn(CC(C)(C#N)NC(=O)c3ccc(OC(F)(F)F)cc3)nc12` (centres unmarked) [Compound 3.009, N-[2-(6-Bromo-7-methyl-2H-pyrazolo[4,3-b]pyridin-2-yl)-1-cyano-1-methylethyl]-4-trifluoromethoxybenzamide], the inhibition in vivo at 1 mg/kg in the experiment with Haemonchus contortus [1] (dose 1 mg/kg) was not below 95%. Further, the inhibition at 0.0025 ppm (in experiment [2]; with Haemonchus contortus [3]) was not below 90% each time. The inhibition at 50 ppm in experiment [4] is not below 90%.
Regarding `CC(C#N)(Cn1cc2ncc(Br)cc2n1)NC(=O)c1ccc(OC(F)(F)F)cc1` (centres unmarked) [Compound 3.011, N-[2-(6-Bromo-2H-pyrazolo[4,3-b]pyridin-2-yl)-1-cyano-1-methylethyl]-4-trifluoromethoxybenzamide], the inhibition in vivo at 0.5 mg/kg with Haemonchus contortus [1] (dose 0.5 mg/kg) was not below 95%. Also, the inhibition at 0.0025 ppm (in experiment [2]; in the experiment with Haemonchus contortus [3]) was not below 90% in each case. The inhibition at 50 ppm in experiment [4] was not below 90%.
